Biological target: Dipeptidyl peptidase 4 (Homo sapiens, UniProt P27487)
Test: Inhibitory activity against Dipeptidylpeptidase IV (DPP IV) in human acute lymphoblastic leukemia MOLT-4 cell line

Dipeptidyl peptidase 4, sequence (P27487 whole entry): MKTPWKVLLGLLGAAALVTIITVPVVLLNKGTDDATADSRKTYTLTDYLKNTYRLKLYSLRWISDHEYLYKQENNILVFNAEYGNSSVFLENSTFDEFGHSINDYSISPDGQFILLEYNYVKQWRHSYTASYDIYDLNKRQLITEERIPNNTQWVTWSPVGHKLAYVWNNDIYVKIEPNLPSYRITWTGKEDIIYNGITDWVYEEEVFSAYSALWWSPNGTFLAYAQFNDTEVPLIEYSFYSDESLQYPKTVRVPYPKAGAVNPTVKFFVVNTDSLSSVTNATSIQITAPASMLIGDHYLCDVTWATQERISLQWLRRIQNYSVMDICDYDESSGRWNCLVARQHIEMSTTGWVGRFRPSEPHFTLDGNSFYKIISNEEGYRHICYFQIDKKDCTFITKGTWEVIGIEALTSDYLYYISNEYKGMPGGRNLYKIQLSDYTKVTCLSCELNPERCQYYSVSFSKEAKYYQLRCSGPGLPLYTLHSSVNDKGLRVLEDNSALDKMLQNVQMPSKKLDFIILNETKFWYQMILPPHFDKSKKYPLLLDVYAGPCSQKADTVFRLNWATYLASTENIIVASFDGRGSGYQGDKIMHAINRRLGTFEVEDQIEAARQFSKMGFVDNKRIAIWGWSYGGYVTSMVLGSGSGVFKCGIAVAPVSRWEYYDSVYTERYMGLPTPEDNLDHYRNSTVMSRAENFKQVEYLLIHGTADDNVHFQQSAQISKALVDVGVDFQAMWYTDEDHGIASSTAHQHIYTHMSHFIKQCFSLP

For CC(C)C[C@H](NC(=O)[C@@H](O)[C@H](N)Cc1ccccc1)C(=O)O, which IC50 is on record?
The IC50 was > 324 µM.
